Reference: patent US20230122911A1, “FORMULATIONS OF ENZALUTAMIDE” (Astellas Pharma Inc., priority 2012, published 2023)

Tests used:
[1] = Membrane-permeation (MP) dissolution test; assay type: in vitro ADME
Experimental: The membrane permeability test described in the Examples below is carried out as follows. A drug-permeable membrane is placed between feed and permeate reservoirs. A sufficient quantity of test composition is added to a feed test medium and placed in the feed reservoir, while a water immiscible organic solution, such as a 60/40 mixture of decanol/decane, is placed in the permeate reservoir. Samples are removed from the permeate reservoir and analyzed for the concentration of drug as a function of time. […] Further details of this membrane permeation test are disclosed in U.S. Pat. No 7,611,630 B2.
The MP-dissolution test, whose details are described above, measures a capability of low solubility drug formulations which is not measured in the microcentrifuge dissolution test utilized in Examples 4 and 7. This test mimics an aspect of the in vivo situation in the GI tract. In the in vivo situation, it is generally accepted that free drug in solution (i.e. individual drug molecules dissolved in the GI medium without association with formulation components) is the species which is absorbed across the gastrointestinal wall into the bloodstream. As free drug is absorbed, the formulation must be capable of supplying more free drug for absorption. The membrane permeation test measures the amount of drug which crosses a polymeric membrane (as a model of the GI wall) over time, and thus reflects the ability of the formulation to resupply free drug in solution to be further passively transported across the polymeric membrane. In Table 8.1 below, Maximum Flux is the maximum observed rate of permeation across the polymeric membrane, based on the slope of the absorption curve over any period within the 240 minute duration of the experiment, normalized for membrane area. Total drug recovery is the % of the initial drug dose which has crossed the membrane when the test ended at 240 minutes.

[2] = Relative bioavailability of amorphous drug and spray-dried dispersions in rats (Example 12); assay type: in vivo; settings: oral gavage 20 mg/kg, mean ± standard deviation
Experimental: Five groups of jugular vein-cannulated CD® rats (n=6 per group) were dosed five enzalutamide formulations by oral gavage, at a dose of 20 mg/kg, in a volume of 2 ml/kg. Blood samples were obtained at 1, 3, 6, 12, 24, 36, 48, 60, and 72 hr post-dose.
The analytes, enzalutamide. MDPC0002, and MDPC0001 and internal standards (IS), N-^13CD3-enzalutamide, MDPC0002-^13CD3, and MDPC0001-^13CD3 were extracted from […], of rat plasma by a liquid-liquid extraction procedure. Internal standard working solution (25.0 µL) was added to all wells except the matrix blank. A 25.0 µL-volume of acetonitrile was added all matrix blank samples. After adding 200 µL of 5% sodium bicarbonate in water buffer solution, the plate was vortexed for approximately 10 seconds. A Tomtec Quadra 96-well pipettor was used to add […] of methyl tert-butyl ether (MTBE) to all wells, mixed, and approximately 1.00 mL of the organic layer was transferred to a clean 96-well plate. The samples were evaporated under heated nitrogen and reconstituted with 250 µL of 0.1% formic acid in methanol/water (40:60. v/v). The plate was covered and gently vortexed for approximately 10 seconds. The extracts were chromatographed under reverse phase conditions on an ACE 5 C18 HPLC 5 µm, 2.1 x 30 mm column. The compounds were detected and quantified by tandem mass spectrometry in positive ion mode on an MDS Sciex API 3000 equipped with a Turbo IONSPRAY® probe. Calibration curves were obtained by performing a linear regression (weighted ⅟x^2) of the data from the calibration standards.
Plasma enzalutamide concentration vs. time curves were prepared, and values for the following parameters were determined. Cmax max is the highest enzalutamide concentration observed for each rat. Tmax is the time that Cmax is first achieved. AUC0-72 is the area under the plasma enzalutamide concentration vs. time plot out to 72 hr post-dosing.

[3] = rat plasma, listed as Spray-dried amorphous drug

For `CNC(=O)c1ccc(N2C(=S)N(c3ccc(C#N)c(C(F)(F)F)c3)C(=O)C2(C)C)cc1F` [Amorphous enzalutamide, 4-{3-[4-cyano-3-(trifluoromethyl)phenyl]-5,5-dimethyl-4-oxo-2-sulfanylideneimidazolidin-1-yl}-2-fluoro-N-methylbenzamide], the “Maximum Flux” value ([1]; Table 8.1, within 240 minute duration, normalized for membrane area, listed as Amorphous (spray-dried) enzalutamide) was 1.3 µg/cm^2×min, the “AUC 0-72” value [2, 3] was 121000 ± 16400 ng·h/mL and the Cmax [2, 3] was 7140 ± 970 ng/mL. It also gave a Tmax [2, 3] of 2.55 ± 0.57 h.

With `CNC(=O)c1ccc(N2C(=S)N(c3ccc(C#N)c(C(F)(F)F)c3)C(=O)C2(C)C)cc1F` [Control 1, 4-{3-[4-cyano-3-(trifluoromethyl)phenyl]-5,5-dimethyl-4-oxo-2-sulfanylideneimidazolidin-1-yl}-2-fluoro-N-methylbenzamide] the “Maximum Flux” value ([1]; Table 8.1, within 240 minute duration, normalized for membrane area) was 0.4 µg/cm^2×min, the “Maximum Flux” value ([1]; Table 9.3) was 0.4 µg/cm^2-min and the AUC(0-t) ([2]; CD, rat, plasma, po, 20 mg/kg, read-out: AUC 0-72) was 72700 ± 18400 ng·h/mL. The Cmax ([2]; rat plasma) was 3530 ± 660 ng/mL and the Tmax ([2]; rat plasma) was 6.05 ± 0.92 h.
